Data set [1] is described as follows: Minipig intraduodenal (id) bioavailability of oil formulations versus iv parent complex. The following applies: id 10 mg/kg, 10% by weight formulation, vs 1 mg/kg iv parent, AUC0->24 h. The class given is in vivo, Gottingen minipig. As to the method: Compounds were screened for oral bioavailability by injecting the formulated prodrugs directly into the duodenum (intraduodenal or id administration) of the minipig test subjects, thus bypassing the acidic environment of the stomach and thereby eliminating potentially misleading oral bioavailability results that could arise from alteration of the test article drug in the acid environment of the stomach.
The studies were conducted at Xenometrics LLC (Stillwell, Kans.) and the id bioavailability was determined using various axial ligand derivative complexes of GC4419, GC4444, GC4403 and GC4401. […] The following formula is then used to calculate the % oral bioavailability via intestinal absorption of the test article drug complex:
% Oral Bioavailability=AUC0->24 h(id)×(1/dose (mg/kg))÷AUC0->24 hr (iv)*
*Where the iv dose is 1 mg of test article drug per kilogram body weight of the mini-pig, and the dose administered id is 10 mg of test article drug per kg body weight of the mini-pig.
Male Gottingen minipigs (4-5 mo old, 9-12 kg weight) were purchased from Marshall BioResources and housed at Xenometrics. […] The distal end was exteriorized with a reusable accessible hub (see surgical details below). During a recovery period of at least 2 weeks the minipigs were handled daily to acclimate them to the test procedures, i.e., id dosing and blood collections. For each experiment, each minipig received a test article drug dissolved or suspended in an excipient vehicle. […] All dosing experiments were conducted in fasted animals. Food was withdrawn from the minipigs 16 hours before dosing. The minipigs had ad libitum access to water. Dosed minipigs were allowed access to food 6 hour after dosing. The test article was administered at a dose of 10 mg/kg parent drug in 0.1 mL/kg vehicle (e.g., 1.5 mL in 15 kg minipig) as a bolus injection (˜1 minute) via the id cannula. The actual amount of total test article drug administered varied with the formula weight of the prodrug. An equal volume of excipient vehicle was used to flush the cannula after the test article was administered. Approximately 6 hours later, corn oil was used to flush the cannula. After approximately 24 hours post-dose, the catheter was flushed with sterile saline solution and capped. At the following time-points 0.25, 0.5, 1, 2, 4, 8, 24 and 48 hour post-injection, 2 mL blood samples were collected by cranial vena cava puncture (4 mL Sodium heparin Vacutainer, 20 g 1.5″ needle) after the skin surface was wiped with ethanol. The minipig was placed in a sling in a recumbent position without anesthesia for the collection of blood samples. The minipigs were never used more than once per 7 days for experimentation. The blood samples were kept on ice until processed for plasma. Blood samples were centrifuged at 1200×g for ten minutes at 4° C. and plasma samples were transferred to 96 well plate tubes, capped and stored at −20° C. until shipment on dry ice to the analytical laboratory used for measuring the concentration of drug in the plasma. The concentration of the parent manganese pentaaza macrocylic ring complex (independent of the composition of the axial ligands) was measured in plasma using a validated HPLC/MS/MS method that is linear between 50 ng/mL and 20,000 ng/mL.
The oils used for preparing the dosing solutions were used as supplied from commercial sources. The Capmul MCM (NF) is a mixture of mono/diglycerides of caprylic/capric acids and was supplied by ABITEC Corporation, Janesville, Wis. The Miglyol 812 N is a mixture of caprylic/capric acid triglycerides and was supplied by Cremer Oleo Division, Eatontown, N.J. Labrafil M 2125 CS (NF) is chemically defined to be linoleoyl polyoxyl-6 glycerides NF and was supplied by Gattefosse, SAINT-PRIEST Cedex, France. Peceol is chemically defined to be the monoglyceride, glyceryl monooleate NF, and was supplied by Gattefosse, SAINT-PRIEST Cedex, France. […]

Data set [2] is described as follows: Phase 1b trial of intravenous GC4419: oral mucositis outcome. It counts as in vivo, human. Particulars: IV GC4419 with IMRT plus CDDP; compared with historical controls. Here is the method: (§1) The toxicity of GC4419 administered intravenously was evaluated as a part of a phase 1b trial of the use of GC4419 in the treatment of oral mucositis (OM) in patients having oral cavity or oropharyngeal carcinoma. The bioavailability by intravenous administration is presumed to represent 100% systemic bioavailability. In particular, the patients tested included serial 3-6 patient cohorts, with locally-advanced, non-metastatic oral cavity or oropharyngeal carcinoma. The study called for intensity-modulated (IM)RT to approx. 70 Gy total (>50 Gy to >2 oral sites), 2.0-2.2 Gy/fx M-F plus CDDP; plus escalating doses of GC4419, via 60-minute IV infusion, M-F for 3-7 weeks, ending <60 minutes before IMRT. WHO grade of oral mucositis was assessed twice weekly, and levels of GC4419 were measured in plasma by LC/MS. Circulating cytokines (Cy) mechanistically related to oral mucositis were also assayed.

Data set [3] in a line: Phase 1b trial of intravenous GC4419: toxicity and plasma pharmacokinetics. The class given is in vivo, human. Here is the method: as §1
Furthermore, or Phase 1 trials for chemoradiotherapy-induced mucositis (OM) in patients with mouth or oropharyngeal carcinoma, treatment was provided but certain adverse effects (e.g., due to systemic toxicity) occurred. The dosing regimen included dosing with GC4419 intravenously over a period of 60 minutes, ending 60 minutes before an IMRT fraction, according to the protocol as described above. The most common adverse effects were nausea, fatigue, leukopenia, dry mount, dysgeusia and vomiting, and most were attributable to chemo or radiation therapy. A true “maximum dose” was not reached in this study. […] 16% of patients receiving 90 mg/day had grade 3 nausea, and 25% of those receiving 112 mg/day had grade 3 nausea, with those receiving 112 mg/day also experiencing some grade 3 vomiting (i.e., 25%).

A short description of data set [4]: Plasma pharmacokinetics after intraduodenal or intravenous dosing in female rats. It counts as in vivo. The following applies: rat, in vivo. Here is the method: Therefore, following equivalent doses of GC4403, the systemic exposure to an ID dose in this Example was at least 30-100 times lower than it would be from an IV dose. […] This is important since the No Observable Adverse Effect Level (NOAEL) for chronic repeated IV dosing of GC4403 in the rat was previously shown to be only 3 mg/kg/day, and at this time, GC4403 has only be administered successfully to humans by the IV route. Thus, GC4403 or another related dismutase mimetic, such as GC4419, administered as an appropriate oral dosage form delivering drug directly into the small intestine may be an effective treatment for Crohn's Disease, ulcerative colitis and related diseases in humans.

“And” between values parts separate entries of the source, which are not always exact repeats. Equal entries are not always repeated.

With `CC1NC2CCCCC2NCCNC2CCCCC2NCc2cccc1n2.CCC(=O)[O-].CCC(=O)[O-].[Mn+2]` [GC4747, Manganese(II)bis-propionato[6R-Methyl(4aR,13aR,17aR,21aR)-1,2,3,4,4a,5,6,12,13,13a,14,15,16,17,17a,18,19,20,21,21a-Eicosahydro-11,7-nitrilo-7H-dibenzo[b,h][1,4,7,10]tetraazacycloheptadecine-κN5, κN13, κN18, κN21, κN22]-], the “Mini-Pig BioA” value in data set [1] (Base oil Labrafil M2125 CS) is on record as 20%.
On to `CCCC(=O)[O-].CCCC(=O)[O-].[Mn+2].c1cc2nc(c1)CNC1CCCCC1NCCNC1CCCCC1NC2` [GC4713, Manganese(II)bis-n-Butyrato[(4aS,13aS,17aS,21aS)-1,2,3,4,4a,5,6,12,13,13a,14,15,16,17,17a,18,19,20,21,21a-Eicosahydro-11,7-nitrilo-7H-dibenzo[b,h][1,4,7,10]tetraazacycloheptadecine-κN5, κN13, κN18, κN21, κN22]-], for which the “Mini-Pig BioA” value in data set [1] (Base oil Labrafil M2125 CS) came to 21%; in data set [1] (Base oil Peceol) it was 18%.
With “Manganese(II)bis-D-phenylglycinato [(4aS,13aS,17aS,21aS)-1,2,3,4,4a,5,6,12,13,13a, 14,15,16,17,17a,18,19,20,21,21a-Eicosahydro-11,7-nitrilo-7H-dibenzo[b,h][1,4,7,10] tetraazacyclo-heptadecine-κN5, κN13, κN18, κN21, κN22]- [GC4721]”, in data set [1] (Base oil Miglyol 812 N), the “Mini-Pig BioA” value worked out at 11.5%^.
Regarding `O=C([O-])c1ccccc1.O=C([O-])c1ccccc1.[Mn+2].c1cc2nc(c1)CNC1CCCCC1NCCNC1CCCCC1NC2` [GC4712, Manganese(II)bis-Benzoato[(4aS,13aS,17aS,21aS)-1,2,3,4,4a,5,6,12,13,13a,14,15,16,17,17a,18,19,20,21,21a-Eicosahydro-11,7-nitrilo-7H-dibenzo[b,h][1,4,7,10]tetraazacycloheptadecine-κN5, κN13, κN18, κN21, κN22]-], the “Mini-Pig BioA” value is reported as 24% in data set [1] (Base oil Capmul MCM), 18% in data set [1] (Base oil Maisine 35-1) and 29% in data set [1] (Base oil Peceol).
In the case of `[Cl][Mn][Cl].c1cc2nc(c1)CN[C@H]1CCCC[C@@H]1NCCN[C@H]1CCCC[C@@H]1NC2` [GC4419], in data set [2], the “Severe OM” value was “briefer, delayed, less severe, and less frequent than expected”. In addition, the “nausea, patients” value in data set [3] (30 mg/day for 14 or 30 doses, IV) was 86%; in data set [3] (50 mg/day for 14 doses, IV) it was 100%; in data set [3] (75 mg/day for 14 doses, IV) it was 67%; in data set [3] (112 mg/day for 14, 20, 25 or 30 doses, IV), 89% and 85%. Also, the “grade 3 nausea, patients” value in data set [3] (90 mg/day, IV) was 20% and 16%. For the same molecule, in data set [3] (112 mg daily, 60-minute IV infusion, with IMRT/CDDP), the “Dose-limiting toxicities that occurred, grade 3” value is “gastroenteritis (3 wks); and vomiting with hyponatremia (5+ wks)”. Also, the “Cmax and AUC” value in data set [3] (60-minute IV infusion, 15-112 mg) was “dose-proportional”. The “plasma t1/2” value in data set [3] (60-minute IV infusion, patients) is approximately 2 h. Further, in data set [3] (60-minute IV infusion, grade 3 gastroenteritis at 3 weeks, grade 3 vomiting and hyponatremia at 5+ weeks), the “dose limiting toxicity observed at” value worked out at 112 mg/day. In addition, the GC4419-related toxicity entry in data set [3] (IV, 15-112 mg daily for 3-7 weeks) is “acceptable”. The maximum dose entry in data set [3] (IV, up to 112 mg/day) is given as “not reached”. The facial tingling entry in data set [3] (during infusion) is listed as “Mild, transient facial tingling was observed”. The paresthesia result in data set [3] (patients receiving more than 30 mg/day, IV) is recorded as “Some grade 1-2 paresthesia was also observed”. Besides, the “plasma concentrations and Cmax” value in data set [4] was “similarly low plasma concentrations and Cmax as GC4403”; in data set [4] (iv) it was “similarly high plasma concentrations and Cmax”.

(Values after patent US20210361701A1, “PENTAAZA MACROCYCLIC RING COMPLEXES FOR LOCAL DELIVERY” (Galera Labs, LLC, priority 2017, published 2021).)
